Key:
Pseudomonas aeruginosa = assay: Antimicrobial effect against bacteria (MIC); format: cell-based; conditions: strain PAO1, ATCC 15692
Procedure: (§1) Wild type (WT) Pseudomonas aeruginosa, Klebsiella pneumoniae, Enterobacter aerogenes, Staphylococcus aureus were cultivated overnight in LB medium at 37° C., then transferred to 5 ml of fresh LB culture broth, cultivated again for another 3 hours. Bacteria were collected by centrifugation, washed with sodium acetate (12.5 mM) twice, redissolved with 12.5 mM sodium acetate until the concentration was 1.5×10^5 cells/ml. Mixed with sequential-diluted anti-bacterial peptides, seeded in different wells of a 96-well plate allowing to react for 1 hour. Then, 20 μl of liquid bacterial mixture was taken out to mix with 780 μl of PBS (Phosphate-buffered saline) to terminate the reaction. 50 μl was then taken out and inoculated on a solid medium, after being cultivated at 30° C. for 24 hours, formed colonies were observed.

Enterobacter aerogenes = assay: Antimicrobial effect against bacteria (MIC); format: cell-based; conditions: strain ATCC 13048
Procedure: as §1

Klebsiella pneumoniae = assay: Antimicrobial effect against bacteria (MIC); format: cell-based; conditions: strain CG43
Procedure: as §1

Staphylococcus aureus = assay: Antimicrobial effect against bacteria (MIC); format: cell-based; conditions: strain ATCC 33591
Procedure: as §1

[1] = tested on: Wild type (WT) Candida albicans; assay: Candidacidal activity against cell suspension, colony count; format: cell-based; conditions: 37° C., 1 hour
Procedure: Wild type (WT) Candida albicans was cultivated in a YPD medium at 30° C. overnight and then transferred to 5 ml of fresh YPD culture broth, subsequently cultivated for another 5 hours. After being collected by centrifugation, the fungi were washed with sodium acetate (12.5 mM) twice, redissolved with 12.5 mM sodium acetate to yield a fungal concentration of 1.5×10^5 cells/ml. 50 μl of liquid fungal suspension was taken out to be mixed with 50 μl of sequence-diluted antimicrobial peptide and placed in different wells of a 96-well plate, allowing to react (37° C.) for 1 hour (as shown in FIG. 4(A)). Then, 20 μl of fungal liquid mixture was added into 780 μl of PBS to terminate the reaction. Finally, 50 μl was taken out and inoculated on a solid YPD medium, cultivated at 30° C. for 24 hours, then the number of colonies were counted.

och1Δ mutant strain = assay: Susceptibility of och1Δ mutant, CFU; format: cell-based, Candida albicans; conditions: och1Δ versus SN250, 1 h
Procedure: The SN250 and och1Δ mutant strains were grown overnight in YPD broth at 30° C. The overnight culture was then subcultured into fresh YPD medium and grown for 5 h. Cells were treated with different concentration of peptides for 1 h. After treatment, samples were serially diluted in PBS and 15 μl of each diluent was spotted onto YPD agar plates. Colony-forming units were counted after 24 h incubation at 30° C. The data were represented as the mean values±SD of three independent experiments.

[2] = Circular dichroism secondary structure in 85% TFE, BeStSel analysis; format: physicochemical; conditions: CD analyzed by BeStSel
Procedure: The present invention utilized a Circular Dichroism Spectrometer (AVIV Company) to observe the secondary structure of the antimicrobial peptides. Circular dichoism spectra of P-113 and its derivatives were recorded over the wavelength range of 195-260 nm with readings every 1 nm by using a quartz cuvette having 1 mm optical path length. Ellipticities were represented as mean residue molar ellipticity (MRE). P-113, P-113Du and P-113Tri were dissolved in 85% trifluoroethanol (TFE) solution.

[3] = tested on: SC5314 strain of Candida albicans; assay: Intracellular ROS assay (DHE, MitoSOX Red, flow cytometry); format: cell-based; conditions: 0.25 μM, 1 h, 37° C.
Procedure: The SC5314 strain of Candida albicans (wild type or WT) were grown overnight in YPD broth at 30° C. The overnight culture was then subcultured into fresh YPD medium and grown for 5 h. Cells were harvested by centrifugation, washed twice with 12.5 mM sodium acetate (NaOAc) and resuspended in 12.5 mM NaOAc to a concentration of 1*10^7 cells/ml. The cells were treated with various AMPs (0.25 μM) for 1 h at 37° C. After treatment, cells were washed twice with 12.5 mM NaOAc. Dihydroethidium (DHE) is a superoxide indicator, and MitoSOX Red (MitoSOX) was introduced for selective detection of superoxide in the mitochondria of live cells. The intracellular ROS was measured using DHE (20 μM) staining for 30 min and MitoSOX Red (5 μM) for 60 min in PBS. Fluorescent detection was performed by flow cytometry.

C. dubliniensis = format: cell-based
Procedure: (§2) The antimicrobial activities against clinical isolates and drug-resistant strains of P-113 and its derived peptides were examined. The present invention evaluated the effect of P-113 on 15 clinical isolates of fungi belonging to the genus Candida (see Table 1). Clinical isolates were cultivated overnight at 30° C. under shaking in a YPD cultural broth (1% yeast extract, 2% peptone and 2% glucose), cells were centrifuged and washed with YPD, then cultivated again in a YPD culture broth allowing to grow for 5 hours (initial optical density at 600 nm [OD600]˜0.5). Cells were washed with PBS and then collected by centrifugation, redissolved in a culture broth (modified RPMI 1640 medium, LYM), the cell concentration was adjusted to ˜0.1 [OD600]/ml and then treated with P-113. After the mixed solution was cultivated under shaking at 37° C. and 5% CO2 for 24 hours, absorbance measurement (OD value) was performed to determine the minimum inhibitory concentration (MIC).

C. parapsilosis = format: cell-based
Procedure: as §2

[4] = tested on: Candida albicans strain SC5314 biofilms; assay: Biofilm cell viability, XTT reduction assay; format: cell-based; conditions: biofilm cells, 37° C., 1 hr
Procedure: Candida albicans strain SC5314 was cultivated in a YPD medium overnight and then transferred to a fresh YPD culture broth, diluted until the concentration was 3×10^5 cells/ml. 100 μl of liquid fungal suspension was placed in a 96-well plate for cultivation at 37° C. for 24 hours, formed biofilms were washed with sodium acetate (12.5 mM). Then, sequence-diluted antimicrobial peptides P-113, P-113Du and P-113Tri (0-200 μM) were added, reacted at 37° C. for 1 hour, washed with PBS twice. The cellular activity of the biofilms was determined by using XTT (2,3-bis(2-methoxy-4-nitro-5-sulfophenyl)-2H-tetrazolium-5-carboxanilide) reduction assays to analyze the cell survival rate. To perform this reaction, XTT (0.5 mg/ml) and Menadione (0.5 μM) were dissolved in PBS and then added into a 96-well plate formed by biofilms, reacted at 30° C. for 30 minutes, the optical density was measured at wavelength 490 nm (OD490). The cellular activity of the biofilms was represented as a percentage.

[5] = tested on: SC5314 strain of Candida albicans; assay: Effect of cell wall disrupting agents on peptide activity, CFU; format: cell-based; conditions: Proteinase K 1 mg/ml, 30 min
Procedure: The SC5314 strain of Candida albicans (wild type or WT) were grown overnight in YPD broth at 30° C. The overnight culture was then subcultured into fresh YPD medium and grown for 5 h. Cells were treated with Proteinase K (1 mg/ml) for 30 min or Zymolyase (5 mg/ml) for 1 h at 30° C., followed by reacting with different concentrations of the peptides for 1 h, respectively. After that, samples were serially diluted in phosphate-buffered saline (PBS) and 15 μl of each diluent was spotted onto YPD agar plates. Colony-forming units were counted after incubation at 30° C. for 24 h. The data were represented as the mean values±SD of three independent experiments.

[6] = tested on: Wild type (WT) Candida albicans; assay: Salt and pH tolerance of candidacidal activity; format: cell-based
Procedure: Wild type (WT) Candida albicans was cultivated in a YPD medium at 30° C. overnight and then transferred to 5 ml of fresh YPD culture broth, cultivated subsequently for another 5 hours. After the fungi were collected by centrifugation, washed with 12.5 mM sodium acetate twice, redissolved with 12.5 mM NaOAc to yield a fungal concentration of 1.5×10^6 cells/ml. Fifty microliters of liquid fungal suspension was taken out to mix with 50 μl of sequentially diluted antimicrobial peptides and placed in different wells of a 96-well plate allowing to react for 1 hour at 37° C. (as shown in FIG. 4(A). Then, 50 μl of liquid fungal mixture was taken out and 450 μl PBS was added to terminate the reaction. Finally, 25 μl was taken out and inoculated on a solid YPD medium.

| Compound | Minimum Inhibitory Concentration (MIC) (Pseudomonas aeruginosa) [µg/mL] | Minimum Inhibitory Concentration (MIC) (Enterobacter aerogenes) [µg/mL] | Minimum Inhibitory Concentration (MIC) (Klebsiella pneumoniae) [µg/mL] | Minimum Inhibitory Concentration (MIC) (Staphylococcus aureus) [µg/mL] | activity for killing fungus compared with P-113 [1] | susceptibility of och1Δ mutant to peptide (och1Δ mutant strain) | content of the α-helical secondary structure [2] [%] | ROS-inducing ability, rank among peptides [3] | intracellular ROS formation [3] | Minimum Inhibitory Concentration (C. dubliniensis) [µg/mL] | Minimum Inhibitory Concentration (C. parapsilosis) [µg/mL] | concentration causing 50% reduction in the metabolic activity (50% RMA) [4] [µg/mL] | candidacidal activity after proteinase K treatment of cells [5] | candidacidal activity ([6]; 93.75 mM sodium acetate) | antifungal activity in the high salt environment ([6]; 62.5 and 93.75 mM) | candidacidal activity ([6]; pH 4.5, 6, and 8) |
| --- | --- | --- | --- | --- | --- | --- | --- | --- | --- | --- | --- | --- | --- | --- | --- | --- |
| C[C@H](N)C(=O)N[C@@H](CCCCN)C(=O)N[C@@H](CCCNC(=N)N)C(=O)N[C@@H](Cc1c[nH]cn1)C(=O)N[C@@H](Cc1c[nH]cn1)C(=O)NCC(=O)N[C@@H](Cc1ccc(O)cc1)C(=O)N[C@@H](CCCCN)C(=O)N[C@@H](CCCNC(=N)N)C(=O)N[C@@H](CCCCN)C(=O)N[C@@H](Cc1ccccc1)C(=O)N[C@@H](Cc1c[nH]cn1)C(=O)N[C@@H](C)C(=O)N[C@@H](CCCCN)C(=O)N[C@@H](CCCNC(=N)N)C(=O)N[C@@H](Cc1c[nH]cn1)C(=O)N[C@@H](Cc1c[nH]cn1)C(=O)NCC(=O)N[C@@H](Cc1ccc(O)cc1)C(=O)N[C@@H](CCCCN)C(=O)N[C@@H](CCCNC(=N)N)C(=O)N[C@@H](CCCCN)C(=O)N[C@@H](Cc1ccccc1)C(=O)N[C@@H](Cc1c[nH]cn1)C(=O)N[C@@H](C)C(=O)N[C@@H](CCCCN)C(=O)N[C@@H](CCCNC(=N)N)C(=O)N[C@@H](Cc1c[nH]cn1)C(=O)N[C@@H](Cc1c[nH]cn1)C(=O)NCC(=O)N[C@@H](Cc1ccc(O)cc1)C(=O)N[C@@H](CCCCN)C(=O)N[C@@H](CCCNC(=N)N)C(=O)N[C@@H](CCCCN)C(=O)N[C@@H](Cc1ccccc1)C(=O)N[C@@H](Cc1c[nH]cn1)C(N)=O [P-113Tri] | 3.125 | 12.5 | 6.25 | 25 | stronger activity for killing fungus than P-113 | still sensitive | 21.4 | strongest ROS-inducing ability | induced intracellular ROS formation | 3.10 | 0.78 | 43.245 | failed to kill C. albicans | potent candidacidal activity | maintained strong antifungal activity | consistent candidacidal activity |
| C[C@H](N)C(=O)N[C@@H](CCCCN)C(=O)N[C@@H](CCCNC(=N)N)C(=O)N[C@@H](Cc1c[nH]cn1)C(=O)N[C@@H](Cc1c[nH]cn1)C(=O)NCC(=O)N[C@@H](Cc1ccc(O)cc1)C(=O)N[C@@H](CCCCN)C(=O)N[C@@H](CCCNC(=N)N)C(=O)N[C@@H](CCCCN)C(=O)N[C@@H](Cc1ccccc1)C(=O)N[C@@H](Cc1c[nH]cn1)C(=O)N[C@@H](C)C(=O)N[C@@H](CCCCN)C(=O)N[C@@H](CCCNC(=N)N)C(=O)N[C@@H](Cc1c[nH]cn1)C(=O)N[C@@H](Cc1c[nH]cn1)C(=O)NCC(=O)N[C@@H](Cc1ccc(O)cc1)C(=O)N[C@@H](CCCCN)C(=O)N[C@@H](CCCNC(=N)N)C(=O)N[C@@H](CCCCN)C(=O)N[C@@H](Cc1ccccc1)C(=O)N[C@@H](Cc1c[nH]cn1)C(N)=O [P-113Du] | 3.125 | 25 | 12.5 | 25 | stronger activity for killing fungus than P-113 | resistant | 10.6 | – | induced intracellular ROS formation | 3.10 | 0.78 | 51.54 | failed to kill C. albicans | potent candidacidal activity | – | consistent candidacidal activity |
| LL-37: the control peptide (LLGDFFRKSKEKIGKEFKRIVQRIKDFLRNLVPRTES; Antibacterial peptide LL-37; UniProt P49913 134-170, looked up) [reference compound] | – | – | – | – | – | resistant | – | – | – | – | – | – | can still kill C. albicans cells | – | – | – |
